Type in all cases: cell-based
The target of test [1] is T1, CFTR (Homo sapiens, UniProt P13569).
T1 construct: primary human bronchial epithelial (HBE) cells, from non-CF individuals; endogenous in cells; host or cells: primary human bronchial epithelial cells from non-CF individuals
In words: Short-circuit current recordings on primary HBE cells from non-CF individuals. From the text: Subsequently, the ability of compounds to elicit CFTR-mediated chloride secretion was verified on primary human bronchial epithelial (HBE) cells, from non-CF individuals, in short-circuit current experiments. In this respect, it should be noticed that potentiators are also able to stimulate wild-type CFTR, provided that a submaximal cAMP-dependent stimulation is applied.[20],[22] Accordingly, cells were stimulated with a submaximal concentration of the cAMP analogue, CPT-cAMP, followed by increasing concentrations of the potentiator hit.[20],[22]
Finally, potentiator 39 and VX-770 were further evaluated in primary HBE cells from non-CF individuals, using short-circuit current measurements, to assess the ability of compounds to maximally activate CFTR function in the presence of a submaximal cAMP stimulation. After the addition of amiloride to inhibit sodium absorption through the ENaC channel, the potentiators were added at the maximal effective concentration (1 μM) after which epithelia were stimulated with a submaximal concentration of CPT-cAMP (5 μM), followed by a maximal concentration of the cAMP analogue (100 μM) (Figure 8). We then measured the extent of CFTR-mediated chloride current elicited by submaximal cAMP stimulation in the presence of a potentiator and compared it to total CFTR-mediated chloride current, determined as the current inhibited by CFTR inhibitor-172. In parallel, other epithelia were stimulated only with the two concentrations of the cAMP analogue, in the absence of a potentiator.
Primary bronchial epithelial cells were cultured as previously described.[58] In brief, epithelial cells were cultured in a serum-free medium (LHC9 mixed with RPMI 1640, 1:1) supplemented with hormones and supplements to support cell number amplification. Then, the cells were seeded at high density on porous membranes (500,000 cells for 1 cm^2 Snapwell inserts, for Ussing chamber studies; 200,000 cells for 0.33 cm^2 Mini-Transwell inserts, for TEER/PD measurements). After 24 h, the serum-free medium was replaced with Dulbecco’s modified Eagle’s medium (DMEM)/Ham’s F12 containing 2% fetal bovine serum (FBS) plus hormones and supplements. Differentiation of cells to form a tight epithelium was monitored by measuring transepithelial electrical resistance and potential difference with an epithelial voltohmmeter (EVOM1, World Precision Instruments). […]
Differentiated bronchial epithelia on Snapwell inserts were mounted in a Ussing chamber with internal fluid circulation. […] The short-circuit current was recorded with a PowerLab 4/25 (ADInstruments) analog-to-digital converter connected to a personal computer.

Test [2] deals with T2, F508del-CFTR (Homo sapiens, UniProt P13569, DEL508-508). As to the kind of experiment: HS-YFP-based assay for CFTR activity on F508del-CFTR FRT cells rescued at 32 °C for 24 h. More on the design: expressed in transfected cells; key to Emax: fold increase in F508del-CFTR rescue relative to hit 3 (normalized). On the procedure:
The chemical library was screened in duplicate on a Fischer rat thyroid (FRT) cell line, stably coexpressing F508del-CFTR and the halide-sensitive yellow fluorescent protein, HS-YFP.[23],[34],[35] To overcome the F508del trafficking defect, cells were initially incubated for 24 h at 32 °C and then acutely treated (15–30 min) with a single compound (5 μM) in combination with forskolin (10 μM). After stimulation, the F508del-CFTR activity in the plasma membrane was calculated by measuring the rate of fluorescence quenching arising from iodide influx.[34] This activity was compared to that of wells containing forskolin alone (negative control) or forskolin plus VX-770 (1 μM, as a positive control) (Figure 2A). Analysis of screening performance with the Z′ method gave a score of 0.6, which can be considered optimal for this type of assay. The activity scores for each compound were then plotted as an ordered distribution (Figure 2B). All compounds whose average activity calculated from the two rounds of screening was greater than 185% with respect to the negative control (i.e., forskolin alone) were considered as primary hits.
The primary hits were confirmed by testing them at different concentrations, in order to extrapolate the dose–response relationship. First, we focused on the F508del mutant. The compounds were tested in the low micromolar range, in the presence of forskolin (10 μM), on F508del-CFTR FRT cells following rescue of the trafficking defect by low-temperature incubation, as done for the primary screening. The most interesting hits were subsequently tested for their ability to overcome the more severe gating defect of pure class III mutant using FRT cells stably expressing G551D-CFTR (Figure 3B).
The role of the heteroaryl group (A) acylating the position 2 of the tetrahydro-γ-carboline was initially explored by modifying the substituent on the pyrazolyl residue and replacing the pyrazole with other rings, while keeping the 8-methoxy carboline moiety unmodified. The activity of each compound is described in terms of normalized maximal efficacy (Emax), the maximum fold increase in the rescue of F508del-CFTR activity with respect to hit 3, and potency (EC50), the concentration producing half-maximal efficacy.
FRT cells stably expressing mutant F508del-CFTR or G551D-CFTR and the halide-sensitive yellow fluorescent protein (HS-YFP) YFP-H148Q/I152L and CFBE41o-cells stably expressing F508del-CFTR and HS-YFP were generated as previously described.[21],[57] FRT cells were cultured using the Coon’s modification of Ham’s F12 medium, while CFBE41o-cells were cultured in the modified Eagle’s medium. Media were supplemented with 10% fetal calf serum, 2 mM L-glutamine, 100 U/mL of penicillin, and […] of streptomycin. For functional assays of CFTR activity based on the HS-YFP assays, CFBE41o- or FRT cells were plated (50,000 cells/well) on clear-bottom 96-well black microplates (Corning Life Sciences, Acton, MA). The following day, cells were assayed. In the case of FRT cells expressing F508del-CFTR, plates were kept at 32 °C (or treated with correctors at 37 °C where indicated) for an additional 24 h to rescue the mutant trafficking defect, before assays.
Prior assay, cells were washed with phosphate-buffered saline (PBS) containing (in mM) 137 NaCl, 2.7 KCl, 8.1 Na2HPO4, 1.5 KH2PO4, 1 CaCl2, and 0.5 MgCl2. Cells were then incubated for 25 min with 60 μL of PBS plus forskolin (20 μM) and test compounds (at the desired concentration) to stimulate mutant CFTR. Cells were then transferred to microplate readers (FluoStar Optima; BMG Labtech, Offenburg, Germany) for CFTR activity determination. The plate readers were equipped with high-quality excitation (HQ500/20X: 500 ± 10 nm) and emission (HQ535/30M: 535 ± 15 nm) filters for YFP (Chroma Technology). […]

The target in test [3] is T2, F508del-CFTR. As to the kind of experiment: HS-YFP assay on F508del-CFTR CFBE41o- cells, acute stimulation. More on the design: expressed in transfected cells. The note with it: acute stimulation in the presence of forskolin, Figure 4A. Here is the method: The preliminary activity of these three hits was further evaluated in secondary screening assays. Although featuring the same common scaffold, in order to possibly discriminate the most interesting hit for further structural investigations, the compounds belonging to the family of tetrahydro-γ-carbolines were tested on more relevant cell models. First, the hits were tested on an immortalized bronchial epithelial cell line (CFBE41o-) stably expressing F508del-CFTR and HS-YFP. […]
Prior assay, cells were washed with phosphate-buffered saline (PBS) containing (in mM) 137 NaCl, 2.7 KCl, 8.1 Na2HPO4, 1.5 KH2PO4, 1 CaCl2, and 0.5 MgCl2. […] Cells were then transferred to microplate readers (FluoStar Optima; BMG Labtech, Offenburg, Germany) for CFTR activity determination. The plate readers were equipped with high-quality excitation (HQ500/20X: 500 ± 10 nm) and emission (HQ535/30M: 535 ± 15 nm) filters for YFP (Chroma Technology). The assay consisted of a continuous 14 s fluorescence reading, 2 s before and 12 s after injection of 165 μL of an iodide-containing solution (PBS with Cl^– replaced by I^–; final I^– concentration 100 mM). Data were normalized to the initial background-subtracted fluorescence. […]

T2 sequence (P13569 with tags, fused parts or gaps DEL508-508): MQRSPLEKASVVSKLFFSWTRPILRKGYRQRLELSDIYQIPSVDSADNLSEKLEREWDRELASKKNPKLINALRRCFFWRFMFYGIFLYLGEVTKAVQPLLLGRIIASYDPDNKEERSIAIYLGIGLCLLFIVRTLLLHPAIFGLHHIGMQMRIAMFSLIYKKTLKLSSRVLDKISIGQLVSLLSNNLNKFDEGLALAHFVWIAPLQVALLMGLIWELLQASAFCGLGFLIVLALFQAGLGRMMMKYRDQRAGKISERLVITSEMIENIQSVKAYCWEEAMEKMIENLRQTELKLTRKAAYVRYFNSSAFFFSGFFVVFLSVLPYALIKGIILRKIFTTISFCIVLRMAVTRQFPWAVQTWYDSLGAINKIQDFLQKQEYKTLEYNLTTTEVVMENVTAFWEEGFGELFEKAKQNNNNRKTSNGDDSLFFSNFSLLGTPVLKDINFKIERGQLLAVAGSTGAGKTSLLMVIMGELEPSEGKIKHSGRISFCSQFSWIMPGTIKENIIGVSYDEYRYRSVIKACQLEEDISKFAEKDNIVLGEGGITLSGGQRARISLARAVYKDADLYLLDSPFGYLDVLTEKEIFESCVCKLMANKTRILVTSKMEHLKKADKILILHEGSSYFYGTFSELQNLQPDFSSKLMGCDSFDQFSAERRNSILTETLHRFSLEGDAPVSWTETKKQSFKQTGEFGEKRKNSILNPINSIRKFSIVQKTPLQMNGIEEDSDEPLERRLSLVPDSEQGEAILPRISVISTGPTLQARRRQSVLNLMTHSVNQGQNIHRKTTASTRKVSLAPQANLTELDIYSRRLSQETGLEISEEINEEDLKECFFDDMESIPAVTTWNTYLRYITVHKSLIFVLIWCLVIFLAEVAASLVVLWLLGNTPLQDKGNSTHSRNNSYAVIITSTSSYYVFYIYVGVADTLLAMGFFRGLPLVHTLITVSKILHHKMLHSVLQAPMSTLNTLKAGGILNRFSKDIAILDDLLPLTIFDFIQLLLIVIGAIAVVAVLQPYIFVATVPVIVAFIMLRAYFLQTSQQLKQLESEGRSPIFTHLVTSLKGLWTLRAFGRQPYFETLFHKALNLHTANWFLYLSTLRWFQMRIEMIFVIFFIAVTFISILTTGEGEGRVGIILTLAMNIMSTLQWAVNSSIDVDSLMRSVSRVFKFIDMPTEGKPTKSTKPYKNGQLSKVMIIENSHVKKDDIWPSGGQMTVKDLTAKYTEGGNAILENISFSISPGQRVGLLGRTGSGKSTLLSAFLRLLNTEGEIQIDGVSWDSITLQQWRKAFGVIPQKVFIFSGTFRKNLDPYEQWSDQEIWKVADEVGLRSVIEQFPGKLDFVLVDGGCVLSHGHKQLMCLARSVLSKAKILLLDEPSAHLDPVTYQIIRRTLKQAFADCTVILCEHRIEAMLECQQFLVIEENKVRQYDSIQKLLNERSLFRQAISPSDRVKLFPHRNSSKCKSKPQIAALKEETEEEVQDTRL
T1 sequence (P13569 whole entry): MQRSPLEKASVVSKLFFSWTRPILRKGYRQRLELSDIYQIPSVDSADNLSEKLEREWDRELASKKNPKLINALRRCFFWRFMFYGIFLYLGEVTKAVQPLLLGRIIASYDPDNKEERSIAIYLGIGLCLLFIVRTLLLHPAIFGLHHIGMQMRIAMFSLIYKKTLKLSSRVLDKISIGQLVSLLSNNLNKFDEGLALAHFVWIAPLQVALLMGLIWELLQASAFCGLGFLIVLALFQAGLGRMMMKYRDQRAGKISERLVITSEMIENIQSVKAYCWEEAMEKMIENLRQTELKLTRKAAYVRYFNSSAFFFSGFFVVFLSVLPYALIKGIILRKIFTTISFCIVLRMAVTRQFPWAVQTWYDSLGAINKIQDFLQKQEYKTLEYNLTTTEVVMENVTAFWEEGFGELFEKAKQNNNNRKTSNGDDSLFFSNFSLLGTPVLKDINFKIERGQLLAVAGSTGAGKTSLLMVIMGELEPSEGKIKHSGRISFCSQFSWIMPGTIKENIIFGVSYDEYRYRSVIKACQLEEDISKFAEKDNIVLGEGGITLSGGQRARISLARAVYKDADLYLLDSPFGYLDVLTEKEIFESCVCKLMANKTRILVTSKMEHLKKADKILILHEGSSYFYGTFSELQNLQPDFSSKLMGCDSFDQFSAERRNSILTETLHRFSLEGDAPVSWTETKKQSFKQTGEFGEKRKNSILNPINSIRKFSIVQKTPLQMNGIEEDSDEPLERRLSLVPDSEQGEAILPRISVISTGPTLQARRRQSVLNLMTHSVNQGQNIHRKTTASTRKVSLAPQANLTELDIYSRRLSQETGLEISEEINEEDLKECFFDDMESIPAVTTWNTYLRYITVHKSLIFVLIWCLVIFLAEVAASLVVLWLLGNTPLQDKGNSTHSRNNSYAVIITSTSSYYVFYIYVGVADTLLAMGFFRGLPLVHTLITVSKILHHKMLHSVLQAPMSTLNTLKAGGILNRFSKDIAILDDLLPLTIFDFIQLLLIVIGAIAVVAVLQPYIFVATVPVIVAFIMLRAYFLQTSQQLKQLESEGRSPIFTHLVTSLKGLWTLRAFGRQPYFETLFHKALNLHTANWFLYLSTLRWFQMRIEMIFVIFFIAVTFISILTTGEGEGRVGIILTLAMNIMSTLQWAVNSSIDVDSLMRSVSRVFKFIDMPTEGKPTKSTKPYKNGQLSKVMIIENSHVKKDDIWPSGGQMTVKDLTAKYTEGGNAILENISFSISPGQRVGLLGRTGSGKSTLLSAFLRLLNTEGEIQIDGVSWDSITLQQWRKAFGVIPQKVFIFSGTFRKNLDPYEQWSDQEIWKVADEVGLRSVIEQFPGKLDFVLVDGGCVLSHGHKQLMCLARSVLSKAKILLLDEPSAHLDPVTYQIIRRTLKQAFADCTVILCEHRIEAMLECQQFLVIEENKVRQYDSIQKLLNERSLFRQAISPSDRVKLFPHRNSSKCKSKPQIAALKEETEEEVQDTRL

Take `CC(C)(C)c1cc(C(C)(C)C)c(NC(=O)c2c[nH]c3ccccc3c2=O)cc1O` [VX-770, reference compound]: in test [1] (1 μM for both compounds, Figure 8B), the “comparison of effectiveness of potentiators” value was “similarly effective”. The “increase of the fraction of CFTR-mediated chloride current activated by submaximal cAMP stimulation” value in test [1] (potentiator 1 μM, CPT-cAMP 5 μM, versus no potentiator) was “more than 2 fold”.

Take `CN(C)c1ccc2cc(C(=O)N3CCc4[nH]c5ccccc5c4C3)[nH]c2c1` [Compound 1, (6-(Dimethylamino)-1H-indol-2-yl)-(1,3,4,5-tetrahydro-2H-pyrido[4,3-b]indol-2-yl)methanone]: the EC50 in test [2] (F508del-CFTR FRT cells rescued at 32 °C for 24 h, plus forskolin, mean ± SD (n = 3–6), n.a.: not active (up to 20 μM)) turned out to be 0.12 ± 0.014 µM. Further, the Emax in test [2] (supplementary csv, same data as Tables 1–3) turned out to be 1.04 ± 0.07. The “dose-dependent activation of mutant CFTR” value in test [3] is “the most effective”.

What is called EC50 is the concentration giving half of the maximal effect.

Values taken from publication PMC8011931, “Identification, Structure–Activity Relationship, and Biological Characterization of 2,3,4,5-Tetrahydro-1H-pyrido[4,3-b]indoles as a Novel Class of CFTR Potentiators” (Journal of Medicinal Chemistry, 2020).
